{"source": "ChEMBL document CHEMBL1122475", "about": "“Antidepressant activity of 5-aryl-2,3,5,6-tetrahydroimidazo[2,1-a]isoquinolin-5-ols” (1983)", "key": {"Mus musculus [1]": {"tested_on": "Mus musculus", "assay": "Minimal dose required to cause piloerection in mice after ip; not active at 12.5 mg/kg", "type": "functional, organism-based", "parameters": "dose 12.5 mg/kg"}, "Mus musculus [2]": {"tested_on": "Mus musculus", "assay": "Minimal dose required to cause aggressiveness in mice after ip administration; not active at 12.5 mg/kg", "type": "functional, organism-based", "parameters": "dose 12.5 mg/kg"}, "Mus musculus [3]": {"tested_on": "Mus musculus", "assay": "Minimal dose required to induce in mice exophthalmus (ip); not active at 12.5 mg/kg at 12.5 mg/kg", "type": "functional, organism-based"}, "Mus musculus [4]": {"tested_on": "Mus musculus", "assay": "Minimal dose required to induce hyperaesthesia in mice (ip)", "type": "functional"}, "Mus musculus [5]": {"tested_on": "Mus musculus", "assay": "Dose required to induce hyperactivity in mice (ip)", "type": "functional"}, "Mus musculus [6]": {"tested_on": "Mus musculus", "assay": "Inhibition of reserpine (5 mg/kg i.p.) induced hypothermia in mice 4 hr after i.p. administration.", "type": "functional", "details": "ip"}, "Mus musculus [7]": {"tested_on": "Mus musculus", "assay": "Minimal dose required to induce in mice straub tail (ip); not active at 12.5 mg/kg at 12.5 mg/kg", "type": "functional, organism-based"}, "Mus musculus [8]": {"tested_on": "Mus musculus", "assay": "Lethal dose by i.p. administration.", "type": "functional", "details": "ip"}, "Mus musculus [9]": {"tested_on": "Mus musculus", "assay": "Inhibition of reserpine (5 mg/kg i.p.) induced hypothermia in mice 2 hr after i.p. administration.", "type": "functional", "details": "ip"}, "Mus musculus [10]": {"tested_on": "Mus musculus", "assay": "Dose required to induce hypersensitivity in mice (ip); not active at 12.5 mg/kg", "type": "functional, organism-based", "parameters": "dose 12.5 mg/kg"}, "Mus musculus [11]": {"tested_on": "Mus musculus", "assay": "Dose at which 50% convulsions occurred in mice (ip)", "type": "functional"}, "Mus musculus [12]": {"tested_on": "Mus musculus", "assay": "Dose required to induce hypersensitivity in mice (ip)", "type": "functional"}, "Mus musculus [13]": {"tested_on": "Mus musculus", "assay": "Minimal dose required to induce in mice straub tail (ip)", "type": "functional"}, "Mus musculus [14]": {"tested_on": "Mus musculus", "assay": "Minimal dose required to cause aggressiveness in mice after ip administration; not active at a dose of 50.0 mg/kg", "type": "functional, organism-based", "parameters": "dose 50 mg/kg"}, "Mus musculus [15]": {"tested_on": "Mus musculus", "assay": "Minimal dose required to induce in mice exophthalmus (ip)", "type": "functional"}, "Mus musculus [16]": {"tested_on": "Mus musculus", "assay": "Dose required to induce hyperactivity in mice (ip); not active at a dose of 50.0 mg/kg", "type": "functional, organism-based", "parameters": "dose 50 mg/kg"}, "Mus musculus [17]": {"tested_on": "Mus musculus", "assay": "Minimal dose required to cause piloerection in mice after ip administration", "type": "functional"}, "Mus musculus [18]": {"tested_on": "Mus musculus", "assay": "Dose required to induce hyperactivity in mice (ip); not active at a dose of 25.0 mg/kg", "type": "functional, organism-based", "parameters": "dose 25 mg/kg"}, "Mus musculus [19]": {"tested_on": "Mus musculus", "assay": "Minimal dose required to induce in mice straub tail (ip); not active at a dose of 25.0 mg/kg", "type": "functional, organism-based", "parameters": "dose 25 mg/kg"}, "Mus musculus [20]": {"tested_on": "Mus musculus", "assay": "Minimal dose required to cause aggressiveness in mice after ip administration; not active at a dose of 25.0 mg/kg", "type": "functional, organism-based", "parameters": "dose 25 mg/kg"}, "Mus musculus [21]": {"tested_on": "Mus musculus", "assay": "Minimal dose required to induce in mice exophthalmus (ip); not active at a dose of 25.0 mg/kg", "type": "functional, organism-based", "parameters": "dose 25 mg/kg"}, "Mus musculus [22]": {"tested_on": "Mus musculus", "assay": "Minimal dose required to induce hyperaesthesia in mice (ip); not active at a dose of 25.0 mg/kg", "type": "functional, organism-based", "parameters": "dose 25 mg/kg"}, "Mus musculus [23]": {"tested_on": "Mus musculus", "assay": "Minimal dose required to cause piloerection in mice after ip administration; not active at a dose of 25.0 mg/kg", "type": "functional, organism-based", "parameters": "dose 25 mg/kg"}, "Mus musculus [24]": {"tested_on": "Mus musculus", "assay": "Dose required to induce hypersensitivity in mice (ip); weak active at a dose of 12.5 mg/kg", "type": "functional, organism-based", "parameters": "dose 12.5 mg/kg"}, "Mus musculus [25]": {"tested_on": "Mus musculus", "assay": "Minimal dose required to cause piloerection in mice after ip administration; not active at a dose of 12.5 mg/kg", "type": "functional, organism-based", "parameters": "dose 12.5 mg/kg"}, "Mus musculus [26]": {"tested_on": "Mus musculus", "assay": "Minimal dose required to cause aggressiveness in mice after ip administration", "type": "functional"}, "Mus musculus [27]": {"tested_on": "Mus musculus", "assay": "Minimal dose required to cause piloerection in mice after ip administration; not active at a dose of 50.0 mg/kg", "type": "functional, organism-based", "parameters": "dose 50 mg/kg"}, "Mus musculus [28]": {"tested_on": "Mus musculus", "assay": "Minimal dose required to induce in mice exophthalmus (ip); not active at a dose of 50.0 mg/kg", "type": "functional, organism-based", "parameters": "dose 50 mg/kg"}}, "note": "Active and inactive are the calls of the source. The rule behind the calls is not given here."}
{"smiles": "OC1(c2ccccc2)Cc2ccccc2C2=NCCN21", "note": "(centres undefined)", "values": [{"measurement": "MD", "setting": "Mus musculus [1]", "value": "inactive"}, {"measurement": "MD", "setting": "Mus musculus [2]", "value": "inactive"}, {"measurement": "MD", "setting": "Mus musculus [3]", "value": "inactive"}, {"measurement": "MD", "setting": "Mus musculus [4]", "value": 9.4, "unit": "mg/kg"}, {"measurement": "ED50", "setting": "Mus musculus [5]", "value": 12.5, "unit": "mg/kg"}, {"measurement": "ED50", "setting": "Mus musculus [6]", "value": "> 9.4", "unit": "mg/kg"}, {"measurement": "MD", "setting": "Mus musculus [7]", "value": "inactive"}, {"measurement": "LD50", "setting": "Mus musculus [8]", "value": 37.5, "unit": "mg/kg"}, {"measurement": "ED50", "setting": "Mus musculus [9]", "value": 5, "unit": "mg/kg"}, {"measurement": "ED50", "setting": "Mus musculus [10]", "value": "inactive"}]}
{"smiles": "OC1(c2cccc(Cl)c2)Cc2ccccc2C2=NCCN21", "note": "(centres undefined)", "values": [{"measurement": "CD50", "setting": "Mus musculus [11]", "value": 37.5, "unit": "mg/kg"}, {"measurement": "ED50", "setting": "Mus musculus [6]", "value": 11.5, "unit": "mg/kg"}, {"measurement": "LD50", "setting": "Mus musculus [8]", "value": 37.5, "unit": "mg/kg"}, {"measurement": "ED50", "setting": "Mus musculus [9]", "value": 2.1, "unit": "mg/kg"}]}
{"smiles": "OC1(c2ccccc2F)Cc2ccccc2C2=NCCN21", "note": "(centres undefined)", "values": [{"measurement": "ED50", "setting": "Mus musculus [6]", "value": "> 11.5", "unit": "mg/kg"}, {"measurement": "LD50", "setting": "Mus musculus [8]", "value": 35.5, "unit": "mg/kg"}, {"measurement": "ED50", "setting": "Mus musculus [9]", "value": 5.1, "unit": "mg/kg"}]}
{"smiles": "COc1ccc(C2(O)Cc3ccccc3C3=NCCN32)cc1", "note": "(centres undefined)", "values": [{"measurement": "CD50", "setting": "Mus musculus [11]", "value": 37.5, "unit": "mg/kg"}, {"measurement": "MD", "setting": "Mus musculus [4]", "value": 37.5, "unit": "mg/kg"}, {"measurement": "ED50", "setting": "Mus musculus [12]", "value": 50, "unit": "mg/kg"}, {"measurement": "MD", "setting": "Mus musculus [13]", "value": 18.8, "unit": "mg/kg"}, {"measurement": "ED50", "setting": "Mus musculus [6]", "value": 25.6, "unit": "mg/kg"}, {"measurement": "MD", "setting": "Mus musculus [14]", "value": "inactive"}, {"measurement": "MD", "setting": "Mus musculus [15]", "value": 18.8, "unit": "mg/kg"}, {"measurement": "ED50", "setting": "Mus musculus [16]", "value": "inactive"}, {"measurement": "LD50", "setting": "Mus musculus [8]", "value": 138, "unit": "mg/kg"}, {"measurement": "ED50", "setting": "Mus musculus [9]", "value": 8.4, "unit": "mg/kg"}, {"measurement": "MD", "setting": "Mus musculus [17]", "value": 37.5, "unit": "mg/kg"}]}
{"smiles": "OC1(Cc2ccccc2)Cc2ccccc2C2=NCCN21", "note": "(centres undefined)", "values": [{"measurement": "ED50", "setting": "Mus musculus [18]", "value": "inactive"}, {"measurement": "CD50", "setting": "Mus musculus [11]", "value": 37.5, "unit": "mg/kg"}, {"measurement": "MD", "setting": "Mus musculus [19]", "value": "inactive"}, {"measurement": "ED50", "setting": "Mus musculus [12]", "value": 25, "unit": "mg/kg"}, {"measurement": "MD", "setting": "Mus musculus [20]", "value": "inactive"}, {"measurement": "MD", "setting": "Mus musculus [21]", "value": "inactive"}, {"measurement": "ED50", "setting": "Mus musculus [6]", "value": "> 25.6", "unit": "mg/kg"}, {"measurement": "MD", "setting": "Mus musculus [22]", "value": "inactive"}, {"measurement": "LD50", "setting": "Mus musculus [8]", "value": 37.5, "unit": "mg/kg"}, {"measurement": "MD", "setting": "Mus musculus [23]", "value": "inactive"}, {"measurement": "ED50", "setting": "Mus musculus [9]", "value": 5.9, "unit": "mg/kg"}]}
{"smiles": "CN(C)CCCN1c2ccccc2CCc2ccccc21", "note": "[IMIPRAMINE]", "values": [{"measurement": "ED50", "setting": "Mus musculus [6]", "value": 12.8, "unit": "mg/kg"}, {"measurement": "ED50", "setting": "Mus musculus [9]", "value": 6.3, "unit": "mg/kg"}]}
{"smiles": "OC1(c2cccc(F)c2)Cc2ccccc2C2=NCCN21", "note": "(centres undefined)", "values": [{"measurement": "ED50", "setting": "Mus musculus [24]", "value": "Weak"}, {"measurement": "MD", "setting": "Mus musculus [4]", "value": 9.4, "unit": "mg/kg"}, {"measurement": "MD", "setting": "Mus musculus [13]", "value": 9.4, "unit": "mg/kg"}, {"measurement": "ED50", "setting": "Mus musculus [5]", "value": 12.5, "unit": "mg/kg"}, {"measurement": "ED50", "setting": "Mus musculus [6]", "value": 5.2, "unit": "mg/kg"}, {"measurement": "MD", "setting": "Mus musculus [15]", "value": 9.4, "unit": "mg/kg"}, {"measurement": "MD", "setting": "Mus musculus [25]", "value": "inactive"}, {"measurement": "LD50", "setting": "Mus musculus [8]", "value": 21, "unit": "mg/kg"}, {"measurement": "MD", "setting": "Mus musculus [26]", "value": 9.4, "unit": "mg/kg"}, {"measurement": "ED50", "setting": "Mus musculus [9]", "value": 0.7, "unit": "mg/kg"}]}
{"smiles": "OC1(c2ccc(Cl)cc2)c2ccccc2C2=NCCN21", "note": "(centres undefined) [MAZINDOL]", "values": [{"measurement": "ED50", "setting": "Mus musculus [6]", "value": 0.12, "unit": "mg/kg"}, {"measurement": "ED50", "setting": "Mus musculus [9]", "value": 0.05, "unit": "mg/kg"}]}
{"smiles": "Cc1ccc(C2(O)Cc3ccccc3C3=NCCN32)cc1", "note": "(centres undefined)", "values": [{"measurement": "MD", "setting": "Mus musculus [27]", "value": "inactive"}, {"measurement": "CD50", "setting": "Mus musculus [11]", "value": 75, "unit": "mg/kg"}, {"measurement": "MD", "setting": "Mus musculus [4]", "value": 37.5, "unit": "mg/kg"}, {"measurement": "ED50", "setting": "Mus musculus [12]", "value": 37.5, "unit": "mg/kg"}, {"measurement": "MD", "setting": "Mus musculus [13]", "value": 37.5, "unit": "mg/kg"}, {"measurement": "ED50", "setting": "Mus musculus [6]", "value": "> 25.6", "unit": "mg/kg"}, {"measurement": "MD", "setting": "Mus musculus [14]", "value": "inactive"}, {"measurement": "ED50", "setting": "Mus musculus [16]", "value": "inactive"}, {"measurement": "LD50", "setting": "Mus musculus [8]", "value": 84.1, "unit": "mg/kg"}, {"measurement": "MD", "setting": "Mus musculus [28]", "value": "inactive"}, {"measurement": "ED50", "setting": "Mus musculus [9]", "value": "> 25.6", "unit": "mg/kg"}]}
